Test results reported in patent US7192983B2, “N-protected/N-substituted-beta-amino hydroxy sulfonates” (G.D. Searle & Co., priority 1995, dated 2007).

Experiment: Determination of storage stability at ambient temperature (purity by HPLC)
Type: physicochemical
Procedure: 2S-[Bis (phenylmethyl) amino]-1-hydroxy-3-phenylpropyl sulfonic acid, sodium salt (5 grams) was treated with stirring with an aqueous solution of 5 grams of potassium carbonate in 50 mL of water at room temperature. The aqueous solution was extracted once with a 50 mL portion of ethyl acetate. The organic solvent solutions were combined and removed under reduced pressure. The residue was dissolved in the tetrahydrofuran (THF), filtered through a cotton filter plug and the solvent removed under reduced pressure. […] The samples were placed on the column diluted in 90% hexane, 5% isopropanol and 5% tert-butylmethyl ether.
The experiment extended through 61 days with purity determinations made on days 0 (t=0), 3 (t=3), 6 (t=6), 18 (t=18) and 61 (t=61). A sample of the salt was treated with aqueous potassium carbonate and extracted with ethyl acetate on day 0. The ethyl acetate was removed under reduced pressure to provide the aldehyde and this sample was used as a t=0 […] reference standard for the stability determination (“Aldehyde Sample”). The t=0 sample of the aldehyde was then stored at ambient temperature in a capped, brown glass bottle side by side with the stored sample of the salt. The purity of the salt was then measured on days 3 (t=3), 8 (t=8), 15 (t=15) and 21 (t=21).

## O=C[C@H](Cc1ccccc1)N(Cc1ccccc1)Cc1ccccc1 [Aldehyde Sample, 2S-[bis(phenylmethyl)amino]-3-phenylpropanal]
Day 8, stored at ambient temperature in capped brown glass bottle
  % aldehyde remaining: 64%
Day 15, stored at ambient temperature in capped brown glass bottle
  % aldehyde remaining: 23%
Day 18, stored at ambient temperature in capped brown glass bottle
  % aldehyde remaining: 10%
